Data as given in publication PMC6394990, “Detailed characterization of the solution kinetics and thermodynamics of biotin, biocytin and HABA binding to avidin and streptavidin” (PLoS ONE, 2019).
Read-outs that look alike come from different tables or passages of the source.

What was measured:
avidin (AV) [1] = molecular target: T1, avidin (AV) (Gallus gallus, UniProt P02701); settings: pH 8; read-out: KD AV-HABA; cited from earlier work
T1 construct: purchased Calbiochem (La Jolla, CA)

avidin (AV) [2] = molecular target: T1, avidin (AV); assay: Relaxation kinetics of unlabeled biotin reacting with the AV-HABA complex; type: binding; settings: pH 8
Protocol: (§1) All of the following protein concentrations are presented on a binding site basis, thus in the case of the HABA association reactions for AV were measured at 23.0 ± 0.1°C with a concentration of 87 μM HABA and 7.7 μM AV. The AV-HABA relaxation reactions were conducted with a preformed AV-HABA complex made up of 200 μM HABA and 10 μM AV, flowed against varying amounts of B7 from 100 μM up to 4000 μM for a [HABA]/[B7] ratio that ranged from 0.05 to 2.
The relaxation experiments were prepared at concentrations in which HABA occupies all sites (AV-HABA4). Biotin replaces HABA relative to the koff of the dye as shown for the first step (Eq 1) and then repeated for all sites. Having greater affinity, B7 occupies all sites at the end of the reaction and the measured kon is related to the affinities of the ligand bound protein.
The reaction is monitored by the HABA absorbance changes at 500 nm as it is replaced by unlabeled B7; yielding the relaxation constant of the reaction (Relaxation, Eq 2) which contains information of the B7 association rate constant of the open binding site, k1AV−HABA3 to form a full saturated complex (AV-HABA4) and the dissociation rate of that full complex, k−1AV−HABA4 , to yield a complex with three HABA molecules (AV-HABA3). In the subsequent steps, B7 replaces HABA as the ligand but the release of HABA creates an unoccupied site that remains in the same state. In summary, the experiment was designed to acquire the pseudo-first order association rate constant of B7 binding ( konB ) to the solely free binding site in a complex occupied by three HABA molecules (AV-HABA3).
The reciprocal of the relaxation constant (1/Relaxation) is plotted vs. the [HABA]/[B] concentration ratio (Eq 3) allowing to calculate: k−1AV−HABA4 and k1AV−HABA3 by solving for the intercept ( 1/k−1AV−HABA4 ) and the respective slope: m=k1AV−HABA3/(k−1AV−HABA4∙konB) . The exponential decays were analyzed by the method of Foss. There was no departure from simple first order decay in the relaxation, justifying the use of the following model and equations.

avidin (AV) [3] = molecular target: T1, avidin (AV); assay: HABA association reaction for AV (stopped-flow absorbance at 500 nm); type: binding; settings: 23°C
Protocol: as §1
These calculations have been described elsewhere and were acquired for the AB1 complexes. The HABA association reaction for AV was carried out under pseudo-first order conditions on a micro absorbance SF instrument equipped with a xenon arc lamp (described above) and a monochromator (model 82–410, Jarrel-Ash, Waltham, Mass.) set at 500 nm.

T1 sequence (P02701 25-152): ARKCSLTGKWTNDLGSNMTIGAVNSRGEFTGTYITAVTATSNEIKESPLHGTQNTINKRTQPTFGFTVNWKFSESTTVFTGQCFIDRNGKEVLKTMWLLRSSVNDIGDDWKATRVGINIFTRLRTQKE

O=C(O)c1ccccc1N=Nc1ccc(O)cc1 [HABA, 2-(4’-hydroxyazobenzene)-benzoic acid]
Kd (avidin (AV) [1]): 12 µM
Kd (avidin (AV) [2]; from k−1 and k1): 12.2 µM
k−1 AV−HABA4, HABA dissociation rate constant of the AV-HABA4 complex (avidin (AV) [2]; 23°C): 6.23 ± 0.11 s⁻¹
k1 AV−HABA3, HABA association rate for the final site (avidin (AV) [3]): 5.1 ± 0.1 × 10^5 M^-1s^-1
